Measured values published in PMC7156458, “Synthetic biology based construction of biological activity-related library of fungal decalin-containing diterpenoid pyrones” (Nature Communications, 2020).

Target: Aβ42 (Homo sapiens, UniProt P05067)
Assay: Th-T (thioflavin-T) assay of Aβ42 aggregation
Assay type: biochemical
Details: for Th-T fluorescence, mean of three wells: compound at 50

Aβ42, sequence (P05067 672-713): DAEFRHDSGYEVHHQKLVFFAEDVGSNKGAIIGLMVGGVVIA

## C=C1CC[C@@H]2[C@](C)(CC[C@H]3O[C@H](C=C(C)C)C[C@@]23C)[C@@H]1Cc1c(OC)oc(CO)c(C(=O)OC)c1=O [Compound 21]
Reading M54 of time course
  Th-T fluorescence, mean of three wells: 0.2222
Reading M55 of time course
  Th-T fluorescence, mean of three wells: 0.2197
Reading M56 of time course
  Th-T fluorescence, mean of three wells: 0.2209
Reading M57 of time course
  Th-T fluorescence, mean of three wells: 0.2237
Reading M58 of time course
  Th-T fluorescence, mean of three wells: 0.2252
Reading M59 of time course
  Th-T fluorescence, mean of three wells: 0.2206
Reading M60 of time course
  Th-T fluorescence, mean of three wells: 0.2276
Reading M61 of time course
  Th-T fluorescence, mean of three wells: 0.2285
Reading M62 of time course
  Th-T fluorescence, mean of three wells: 0.2296
Concentration 10, unit not given, time-course reading M129
  Th-T fluorescence of Aβ42 with compound, mean of three wells (Fig. 7a source data): 1.701
Concentration 10, unit not given, time-course reading M130
  Th-T fluorescence of Aβ42 with compound, mean of three wells (Fig. 7a source data): 1.706
Concentration 10, unit not given, time-course reading M131
  Th-T fluorescence of Aβ42 with compound, mean of three wells (Fig. 7a source data): 1.73
Concentration 10, unit not given, time-course reading M132
  Th-T fluorescence of Aβ42 with compound, mean of three wells (Fig. 7a source data): 1.6977
Concentration 10, unit not given, time-course reading M133
  Th-T fluorescence of Aβ42 with compound, mean of three wells (Fig. 7a source data): 1.7165
Concentration 10, unit not given, time-course reading M134
  Th-T fluorescence of Aβ42 with compound, mean of three wells (Fig. 7a source data): 1.726
Concentration 10, unit not given, time-course reading M135
  Th-T fluorescence of Aβ42 with compound, mean of three wells (Fig. 7a source data): 1.717
Concentration 10, unit not given, time-course reading M136
  Th-T fluorescence of Aβ42 with compound, mean of three wells (Fig. 7a source data): 1.738
Concentration 10, unit not given, time-course reading M137
  Th-T fluorescence of Aβ42 with compound, mean of three wells (Fig. 7a source data): 1.7043
Concentration 10, unit not given, time-course reading M138
  Th-T fluorescence of Aβ42 with compound, mean of three wells (Fig. 7a source data): 1.717
Concentration 10, unit not given, time-course reading M139
  Th-T fluorescence of Aβ42 with compound, mean of three wells (Fig. 7a source data): 1.708
Concentration 10, unit not given, time-course reading M140
  Th-T fluorescence of Aβ42 with compound, mean of three wells (Fig. 7a source data): 1.723
Concentration 10, unit not given, time-course reading M141
  Th-T fluorescence of Aβ42 with compound, mean of three wells (Fig. 7a source data): 1.719
Concentration 10, unit not given, time-course reading M142
  Th-T fluorescence of Aβ42 with compound, mean of three wells (Fig. 7a source data): 1.725
Concentration 10, unit not given, time-course reading M143
  Th-T fluorescence of Aβ42 with compound, mean of three wells (Fig. 7a source data): 1.723
Concentration 10, unit not given, time-course reading M144
  Th-T fluorescence of Aβ42 with compound, mean of three wells (Fig. 7a source data): 1.716
Concentration 10, unit not given, time-course reading M145
  Th-T fluorescence of Aβ42 with compound, mean of three wells (Fig. 7a source data): 1.741
Concentration 20, unit not given, time-course reading M129
  Th-T fluorescence of Aβ42 with compound, mean of three wells (Fig. 7a source data): 0.972
Concentration 20, unit not given, time-course reading M130
  Th-T fluorescence of Aβ42 with compound, mean of three wells (Fig. 7a source data): 0.9564
Concentration 20, unit not given, time-course reading M131
  Th-T fluorescence of Aβ42 with compound, mean of three wells (Fig. 7a source data): 0.9524
Concentration 20, unit not given, time-course reading M132
  Th-T fluorescence of Aβ42 with compound, mean of three wells (Fig. 7a source data): 0.9585
Concentration 20, unit not given, time-course reading M133
  Th-T fluorescence of Aβ42 with compound, mean of three wells (Fig. 7a source data): 0.9579
Concentration 20, unit not given, time-course reading M134
  Th-T fluorescence of Aβ42 with compound, mean of three wells (Fig. 7a source data): 0.9622
Concentration 20, unit not given, time-course reading M135
  Th-T fluorescence of Aβ42 with compound, mean of three wells (Fig. 7a source data): 0.9636
Concentration 20, unit not given, time-course reading M136
  Th-T fluorescence of Aβ42 with compound, mean of three wells (Fig. 7a source data): 0.9565
Concentration 20, unit not given, time-course reading M137
  Th-T fluorescence of Aβ42 with compound, mean of three wells (Fig. 7a source data): 0.947
Concentration 20, unit not given, time-course reading M138
  Th-T fluorescence of Aβ42 with compound, mean of three wells (Fig. 7a source data): 0.9539
Concentration 20, unit not given, time-course reading M139
  Th-T fluorescence of Aβ42 with compound, mean of three wells (Fig. 7a source data): 0.9666
Concentration 20, unit not given, time-course reading M140
  Th-T fluorescence of Aβ42 with compound, mean of three wells (Fig. 7a source data): 0.9636
Concentration 20, unit not given, time-course reading M141
  Th-T fluorescence of Aβ42 with compound, mean of three wells (Fig. 7a source data): 0.9513
Concentration 20, unit not given, time-course reading M142
  Th-T fluorescence of Aβ42 with compound, mean of three wells (Fig. 7a source data): 0.9675
Concentration 20, unit not given, time-course reading M143
  Th-T fluorescence of Aβ42 with compound, mean of three wells (Fig. 7a source data): 0.9558
Concentration 20, unit not given, time-course reading M144
  Th-T fluorescence of Aβ42 with compound, mean of three wells (Fig. 7a source data): 0.9694
Concentration 20, unit not given, time-course reading M145
  Th-T fluorescence of Aβ42 with compound, mean of three wells (Fig. 7a source data): 0.9486
Concentration 50, unit not given, time-course reading M129
  Th-T fluorescence of Aβ42 with compound, mean of three wells (Fig. 7a source data): 0.5005
Concentration 50, unit not given, time-course reading M130
  Th-T fluorescence of Aβ42 with compound, mean of three wells (Fig. 7a source data): 0.4954
Concentration 50, unit not given, time-course reading M131
  Th-T fluorescence of Aβ42 with compound, mean of three wells (Fig. 7a source data): 0.4987
Concentration 50, unit not given, time-course reading M132
  Th-T fluorescence of Aβ42 with compound, mean of three wells (Fig. 7a source data): 0.5011
Concentration 50, unit not given, time-course reading M133
  Th-T fluorescence of Aβ42 with compound, mean of three wells (Fig. 7a source data): 0.5033
Concentration 50, unit not given, time-course reading M134
  Th-T fluorescence of Aβ42 with compound, mean of three wells (Fig. 7a source data): 0.5026
Concentration 50, unit not given, time-course reading M135
  Th-T fluorescence of Aβ42 with compound, mean of three wells (Fig. 7a source data): 0.5014
Concentration 50, unit not given, time-course reading M136
  Th-T fluorescence of Aβ42 with compound, mean of three wells (Fig. 7a source data): 0.502
Concentration 50, unit not given, time-course reading M137
  Th-T fluorescence of Aβ42 with compound, mean of three wells (Fig. 7a source data): 0.5003
Concentration 50, unit not given, time-course reading M138
  Th-T fluorescence of Aβ42 with compound, mean of three wells (Fig. 7a source data): 0.5022
Concentration 50, unit not given, time-course reading M139
  Th-T fluorescence of Aβ42 with compound, mean of three wells (Fig. 7a source data): 0.5032
Concentration 50, unit not given, time-course reading M140
  Th-T fluorescence of Aβ42 with compound, mean of three wells (Fig. 7a source data): 0.5012
Concentration 50, unit not given, time-course reading M141
  Th-T fluorescence of Aβ42 with compound, mean of three wells (Fig. 7a source data): 0.504
Concentration 50, unit not given, time-course reading M142
  Th-T fluorescence of Aβ42 with compound, mean of three wells (Fig. 7a source data): 0.5037
